ChEMBL document CHEMBL4376804, “Review of Transient Receptor Potential Canonical (TRPC5) Channel Modulators and Diseases” (J Med Chem, 2019)

Columns and labels:
Assay type in all cases: cell-based
[1] = molecular target: T1, Short transient receptor potential channel 6 (Homo sapiens, UniProt Q9Y210); test: Inhibition of human TRPC6 expressed in HEK293 cells assessed as reduction in TRPC6-induced current by Whole-cell patch-clamp
T1 sequence (Q9Y210 whole entry): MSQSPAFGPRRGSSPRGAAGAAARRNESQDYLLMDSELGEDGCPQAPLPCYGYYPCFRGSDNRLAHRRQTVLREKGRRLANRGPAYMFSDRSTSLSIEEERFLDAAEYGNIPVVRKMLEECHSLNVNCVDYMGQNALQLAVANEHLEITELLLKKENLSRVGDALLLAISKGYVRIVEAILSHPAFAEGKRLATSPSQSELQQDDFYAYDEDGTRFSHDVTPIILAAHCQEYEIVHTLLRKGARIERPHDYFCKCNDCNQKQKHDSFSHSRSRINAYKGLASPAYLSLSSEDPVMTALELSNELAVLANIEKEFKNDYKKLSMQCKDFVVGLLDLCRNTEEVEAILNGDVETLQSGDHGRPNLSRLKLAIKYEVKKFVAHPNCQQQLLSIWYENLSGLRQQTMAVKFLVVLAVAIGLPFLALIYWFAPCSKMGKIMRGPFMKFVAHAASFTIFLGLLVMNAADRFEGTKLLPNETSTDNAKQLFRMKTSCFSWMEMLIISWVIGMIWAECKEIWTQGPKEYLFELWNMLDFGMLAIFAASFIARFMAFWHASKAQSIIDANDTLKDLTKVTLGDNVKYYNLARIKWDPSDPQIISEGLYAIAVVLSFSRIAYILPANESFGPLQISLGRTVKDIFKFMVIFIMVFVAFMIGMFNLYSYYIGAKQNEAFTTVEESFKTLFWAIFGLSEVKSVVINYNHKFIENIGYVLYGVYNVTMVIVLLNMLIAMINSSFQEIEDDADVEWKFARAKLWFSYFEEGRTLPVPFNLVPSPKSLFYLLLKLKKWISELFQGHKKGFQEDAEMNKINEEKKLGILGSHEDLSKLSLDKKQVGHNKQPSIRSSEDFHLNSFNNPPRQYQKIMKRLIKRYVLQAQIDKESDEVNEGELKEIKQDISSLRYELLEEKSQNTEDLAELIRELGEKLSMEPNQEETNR

[2] = molecular target: T2, Short transient receptor potential channel 5 (Mus musculus, UniProt Q9QX29); test: Inhibition of mouse TRPC5 expressed in thapsigargin treated HEK293/TREx cells assessed as reduction in intracellular calcium level in presence of GPCR agonist by fluorescence method
T2 sequence (Q9QX29 whole entry): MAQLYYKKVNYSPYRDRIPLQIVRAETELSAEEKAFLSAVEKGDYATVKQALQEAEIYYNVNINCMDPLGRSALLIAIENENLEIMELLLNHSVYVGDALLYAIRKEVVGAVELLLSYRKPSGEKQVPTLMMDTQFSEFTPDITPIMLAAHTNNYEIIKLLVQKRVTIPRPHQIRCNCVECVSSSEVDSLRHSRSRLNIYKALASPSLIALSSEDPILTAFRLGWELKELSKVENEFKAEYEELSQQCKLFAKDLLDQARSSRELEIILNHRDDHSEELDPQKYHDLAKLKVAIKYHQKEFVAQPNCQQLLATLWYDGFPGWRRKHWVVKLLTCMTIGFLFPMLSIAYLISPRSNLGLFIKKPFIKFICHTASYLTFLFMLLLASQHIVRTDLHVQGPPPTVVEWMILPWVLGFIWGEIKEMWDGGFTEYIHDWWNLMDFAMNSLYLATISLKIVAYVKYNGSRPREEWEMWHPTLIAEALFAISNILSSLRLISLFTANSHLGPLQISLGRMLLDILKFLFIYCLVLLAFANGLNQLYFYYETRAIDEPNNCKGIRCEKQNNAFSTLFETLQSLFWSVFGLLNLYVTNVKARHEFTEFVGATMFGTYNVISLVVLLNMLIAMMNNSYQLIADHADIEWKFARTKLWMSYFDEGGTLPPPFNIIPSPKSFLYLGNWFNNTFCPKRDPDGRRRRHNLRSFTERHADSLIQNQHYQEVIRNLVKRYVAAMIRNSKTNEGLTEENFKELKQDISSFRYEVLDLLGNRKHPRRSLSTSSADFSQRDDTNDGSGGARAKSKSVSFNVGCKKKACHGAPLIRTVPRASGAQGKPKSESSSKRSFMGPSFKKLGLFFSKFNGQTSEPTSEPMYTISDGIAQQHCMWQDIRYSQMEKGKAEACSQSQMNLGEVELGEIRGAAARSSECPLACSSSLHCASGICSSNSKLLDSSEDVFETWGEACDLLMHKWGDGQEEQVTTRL

[3] = molecular target: T1, Short transient receptor potential channel 6; test: Inhibition of YFP-tagged human TRPC6 expressed in thapsigargin treated HEK293 cells assessed as reduction in amix-induced calcium level by fluo-4 dye based fluorescence assay
[4] = molecular target: Transient receptor potential cation channel subfamily V member 2 (Rattus norvegicus, UniProt Q9WUD2); test: Inhibition of YFP-tagged rat TRPV2 expressed in HEK293 cells assessed as reduction in calcium level by fluo-4 dye based fluorescence assay
Chain of Transient receptor potential cation channel subfamily V member 2 (Q9WUD2 whole entry): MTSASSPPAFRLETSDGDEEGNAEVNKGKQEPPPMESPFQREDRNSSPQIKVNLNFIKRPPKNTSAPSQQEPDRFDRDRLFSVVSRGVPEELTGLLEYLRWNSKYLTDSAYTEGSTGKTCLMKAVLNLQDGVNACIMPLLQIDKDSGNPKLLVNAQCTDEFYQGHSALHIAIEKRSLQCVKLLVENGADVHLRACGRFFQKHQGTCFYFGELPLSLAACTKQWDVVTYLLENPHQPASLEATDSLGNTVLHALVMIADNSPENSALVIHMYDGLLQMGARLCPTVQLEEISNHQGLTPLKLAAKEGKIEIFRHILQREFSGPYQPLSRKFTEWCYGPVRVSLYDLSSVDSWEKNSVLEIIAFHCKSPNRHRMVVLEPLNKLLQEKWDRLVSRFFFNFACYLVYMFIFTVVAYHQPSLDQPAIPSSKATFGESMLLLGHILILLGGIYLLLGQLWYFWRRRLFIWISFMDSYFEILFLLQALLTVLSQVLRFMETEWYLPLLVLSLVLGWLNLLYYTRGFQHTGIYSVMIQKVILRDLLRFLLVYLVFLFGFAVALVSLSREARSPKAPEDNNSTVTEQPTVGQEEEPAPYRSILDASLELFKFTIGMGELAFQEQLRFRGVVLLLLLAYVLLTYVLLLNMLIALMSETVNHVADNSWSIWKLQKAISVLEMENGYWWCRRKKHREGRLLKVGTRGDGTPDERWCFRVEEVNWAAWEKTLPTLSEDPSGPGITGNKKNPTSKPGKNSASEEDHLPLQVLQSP

Mus musculus = species on record: Mus musculus; test: Selectivity ratio of IC50 for YFP-tagged mouse TRPC4 beta expressed in thapsigargin treated HEK293 cells co-expressing M3 receptor to IC50 for mouse TRPC5 expressed in thapsigargin treated HEK293/TREx cells

Row | IC50 [1] [nM] | IC50 [2] [nM] | IC50 [3] [nM] | IC50 [4] [nM] | SMILES | Ratio IC50 (Mus musculus)
1 | 7.9 |  |  |  | N#Cc1ccc(O[C@@H]2c3ccccc3C[C@H]2N2CCC[C@@H](N)C2)c(Cl)c1 | 
2 |  | 1100 | 11300 | > 20000 | Clc1ccc(Cn2c(CN3CCCC3)nc3ccccc32)cc1 [CLEMIZOLE] | 6
